Laboratory results as given in patent US20040072738A1, “Analogues of thiocoraline and be-22179” (priority 2000, published 2004).
≈ marks a conversion by molar mass, not a printed value. Bridge positions count the residues as written; N and C are the ends. Square brackets hold non-standard residues; d marks the D form. Peptide text beside a SMILES is read from it. I, II: the chains in the order shown. * marks the point of attachment. Quinaldoyl(3-OH) = O=C(c1nc2ccccc2cc1O)*; NMeC = CN[C@@H](CS)C(=O)O

How the values were obtained:
w794 DNA = assay: DNase I and MTE footprinting; type: binding
Description: FIG. 9 is an electrophoresis gel of DNase footprinting of echinomycin bound to w794 DNA. Lane 13, G, C and A Sanger sequencing reactions; lane 4, native DNA; lane 5, control DNA without treatment of DNase I; lanes 6-14; 0, 10, 20, 40, 60, 80, 100, 120, and […] echinomycin with DNase I treatment (1 min).
FIG. 10 is an electrophoresis gel of DNase footprinting of thiocoraline bound to w794 DNA. Lane 1, native DNA; lane 2, control DNA without treatment of DNase I; lanes 3-6, G, C, A, and T Sanger sequencing reactions; lanes 7-26; 0, 10, 25, 50, 75, 100, 150, 200, 250, 300, 350, 400, 450, 500, 600, 700, 800, 900, 1000, and […] thiocoraline with DNase I treatment (1 min).

[1] = solubility in aqueous buffer; type: physicochemical; conditions: aqueous Tris-HCl buffer; Tris-HCl pH 7.4, 75 mM NaCl; read-out: agent concentrations where the compounds are soluble
[2] = test system: duplex deoxyoligonucleotides, 5′-GCXXGC-3′ where XX=TA, AT, GC, CG; assay: fluorescence quenching titration with duplex deoxyoligonucleotides; conditions: high-affinity binding, listed as 1
From the text: Consequently, the binding of 1 was examined with a set of four duplex deoxyoligonucleotides, 5′-GCXXGC-3′ where XX=TA, AT, GC, CG, incorporating the high affinity intercalation sites of the related bisintercalatiors echinomycin (5′-PuCGPy) (Corbaz, R., et al., Helv. Chim. Acta 1957, 40, 199; Keller-Schierlein, W., et al., Helv. Chim. Acta 1957, 40, 205; Keller-Schierlein, W., et al., Helv. Chim. Acta 1959, 42, 305; Martin, D. G., et al., J. Antibiot. 1975, 28, 332; Dell, A., et al., J. Am. Chem. Soc. 1975, 97, 2497), sandramycin (5′-CATG) (Boger, D. L., et al., Bioorg. Med. Chem. 1999, 7, 315; Boger, D. L., et al., Bioorg. Med. Chem. 1998, 6, 85), and the luzopeptins (5′-CATG) (Isolation: Konishi, M., et al., J. Antibiot. 1981, 34, 148; Structure and stereochemistry: Arnold, E., et al., J. Am. Chem. Soc. 1981, 103, 1243. Total synthesis (luzopeptins A-C): Boger, D. L., et al., J. Am. Chem. Soc. 1999, 121, 1098; Boger, D. L., et al., J. Am. Chem. Soc. […] The excitation and emission spectra for thiocoraline and BE-22179 were recorded in aqueous buffer (Tris-HCl, pH 7.4, 75 mM NaCl). To minimize fluorescence decrease due to dissolution or photobleaching, the solutions were stirred in 4-mL cuvettes in the dark with the minimum exposure to the excitation beam necessary to obtain a reading. […]

L1210 cell line = assay: cytotoxic activity in the L1210 assays; conditions: read-out: IC50 cytotoxic activity; L1210 cell line
DNA topoisomerase I = target: T1, DNA topoisomerase I (Homo sapiens, UniProt P11387); conditions: cited from earlier work
T1 sequence (P11387 1-765): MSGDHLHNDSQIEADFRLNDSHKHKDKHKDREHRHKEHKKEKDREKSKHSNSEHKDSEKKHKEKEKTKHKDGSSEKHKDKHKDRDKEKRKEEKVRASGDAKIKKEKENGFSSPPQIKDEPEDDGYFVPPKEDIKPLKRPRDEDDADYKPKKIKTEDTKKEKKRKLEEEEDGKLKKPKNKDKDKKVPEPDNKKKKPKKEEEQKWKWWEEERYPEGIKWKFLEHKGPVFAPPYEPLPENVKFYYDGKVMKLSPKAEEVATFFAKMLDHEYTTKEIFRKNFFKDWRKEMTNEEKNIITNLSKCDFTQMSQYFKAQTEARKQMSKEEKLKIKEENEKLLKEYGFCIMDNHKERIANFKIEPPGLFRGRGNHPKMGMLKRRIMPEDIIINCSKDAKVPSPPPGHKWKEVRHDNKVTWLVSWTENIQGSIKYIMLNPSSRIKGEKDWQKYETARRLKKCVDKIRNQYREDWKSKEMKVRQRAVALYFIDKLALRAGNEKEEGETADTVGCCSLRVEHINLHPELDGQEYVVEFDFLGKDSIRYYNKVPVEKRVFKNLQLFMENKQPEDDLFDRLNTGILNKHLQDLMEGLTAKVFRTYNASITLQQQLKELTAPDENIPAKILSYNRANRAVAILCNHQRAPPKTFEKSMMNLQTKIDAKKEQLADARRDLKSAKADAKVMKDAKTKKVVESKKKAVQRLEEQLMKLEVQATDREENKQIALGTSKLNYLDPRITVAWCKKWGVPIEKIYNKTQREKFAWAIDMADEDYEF

supercoiled ΦX174 DNA = assay: DNA cleavage assay, conversion of Form I to Form II or Form III; type: biochemical
From the text: Also examined was the ability of 1 or 2 to cleave, alkylate, or cross-link DNA. In particular, the electrophilic unsaturation found in BE-22179 might be expected to serve as an alkylation site for covalent attachment to DNA, especially following bisintercalation binding. […] These studies would detect both thermally labile and non thermally labile alkylation sites, but only those engaged in interstrand cross-linking. Given the C2 symmetric nature of 2, bisintercalation analogous to echinomycin and triostin A places the two electrophilic sites in positions to react only with the complementary strands of duplex DNA (interstrand DNA cross-linking) and would preclude intrastrand DNA cross-linking.

DNA topoisomerase II = conditions: cited from earlier work

Structure (SMILES): CSC[C@H]1C(=O)SC[C@@H](NC(=O)c2nc3ccccc3cc2O)C(=O)NCC(=O)N(C)[C@H]2CSSC[C@@H](C(=O)N1C)N(C)C(=O)CNC(=O)[C@H](NC(=O)c1nc3ccccc3cc1O)CSC(=O)[C@H](CSC)N(C)C2=O [Thiocoraline] (I: {Quinaldoyl(3-OH)}-[dC]G[NMeC][NMeC](Me) / II: {Quinaldoyl(3-OH)}-[dC]G[NMeC][NMeC](Me); thioester I:1-II:C, I:C-II:1; disulfide I:3-II:3)
- selectivity of DNA binding by footprinting (w794 DNA): failed to reveal a distinguishable selectivity
- solubility [1]: 1 to 10 µM (≈ 1.16 to 11.6 µg/mL)
- binding constants for the four deoxyoligonucleotides [2]: 3-7×10^6 M^−1
- IC50 (L1210 cell line): 0.2 nM
- inhibition of DNA topoisomerase I (DNA topoisomerase I): does not inhibit
- DNA cleavage (supercoiled ΦX174 DNA): No evidence
- inhibition of DNA topoisomerase II (DNA topoisomerase II): does not inhibit
